Results from the supplement of paper PMC13380429.

Key:
Details in all cases: 72 h
[1] = test system: HepG2; assay: cell viability relative to DMSO; higher = less toxic
[2] = test system: Calu-3; assay: as above
[3] = test system: U2OS; assay: as above
[4] = test system: Caco-2; assay: as above
[5] = test system: Vero E6; assay: as above
[6] = test system: HepG2; assay: relative viability EC50 (midpoint between 100% and the lowest measured viability); higher = less toxic
[7] = test system: Calu-3; assay: as above
[8] = test system: U2OS; assay: as above
[9] = test system: Caco-2; assay: as above
[10] = test system: Vero E6; assay: as above
[11] = test system: HepG2; assay: drug sensitivity score (DSS) for viability; higher = more toxic; extreme values may be limits of the assay
[12] = test system: Calu-3; assay: as above
[13] = test system: U2OS; assay: as above
[14] = test system: Caco-2; assay: as above
[15] = test system: Vero E6; assay: as above

Structure (SMILES) | cell viability ([1]; 1 nM) [%] | cell viability ([1]; 10 nM) [%] | cell viability ([1]; 100 nM) [%] | cell viability ([1]; 1000 nM) [%] | cell viability ([1]; 10000 nM) [%] | cell viability ([2]; 1 nM) [%] | cell viability ([2]; 10 nM) [%] | cell viability ([2]; 100 nM) [%] | cell viability ([2]; 1000 nM) [%] | cell viability ([2]; 10000 nM) [%] | cell viability ([3]; 1 nM) [%] | cell viability ([3]; 10 nM) [%] | cell viability ([3]; 100 nM) [%] | cell viability ([3]; 1000 nM) [%] | cell viability ([3]; 10000 nM) [%] | cell viability ([4]; 1 nM) [%] | cell viability ([4]; 10 nM) [%] | cell viability ([4]; 100 nM) [%] | cell viability ([4]; 1000 nM) [%] | cell viability ([4]; 10000 nM) [%] | cell viability ([5]; 1 nM) [%] | cell viability ([5]; 10 nM) [%] | cell viability ([5]; 100 nM) [%] | cell viability ([5]; 1000 nM) [%] | cell viability ([5]; 10000 nM) [%] | relative viability EC50 [6] [µM] | relative viability EC50 [7] [µM] | relative viability EC50 [8] [µM] | relative viability EC50 [9] [µM] | relative viability EC50 [10] [µM] | drug sensitivity score [11] | drug sensitivity score [12] | drug sensitivity score [13] | drug sensitivity score [14] | drug sensitivity score [15]
CCCCOc1ccc(CC(=O)NO)cc1 [bufexamac] | 95 | 94.6 | 87.5 | 99.9 | 98.2 | 95.8 | 91.2 | 104 | 98.2 | 99.3 | 100 | 97.8 | 98.1 | 96 | 99 | 91.6 | 89.5 | 96.7 | 90.6 | 92.8 | 81.9 | 103 | 89.2 | 96.1 | 85.1 | > 10 | > 10 | > 10 | > 10 | > 10 | 0 | 0 | 0 | 0 | 0.1
CCCC(=O)C1CCN(c2ncnc3c2CN(C(=O)c2ccc(-c4ccccc4)cc2)CC3)CC1 [PK-THPP] | 98.9 | 99.1 | 91.2 | 94.9 | 93.6 | 106 | 101 | 98.9 | 105 | 101 | 106 | 98.9 | 103 | 97 | 95.6 | 105 | 99.8 | 100 | 100 | 75.3 | 102 | 105 | 99.7 | 104 | 98.3 | > 10 | > 10 | > 10 | > 10 | > 10 | 0 | 0 | 0 | 0.9 | 0
CCCN(CCC)S(=O)(=O)c1ccc(C(=O)O)cc1 [probenecid] | 105 | 91.6 | 97 | 95.4 | 109 | 88.3 | 106 | 102 | 118 | 91.3 | 97.5 | 97.5 | 95.2 | 99.1 | 95.9 | 95.8 | 97.6 | 88.8 | 104 | 93.3 | 102 | 104 | 103 | 99.3 | 99.6 | > 10 | > 10 | > 10 | > 10 | > 10 | 0 | 0 | 0 | 0 | 0
O=C(O)C[C@H](O)C(=O)O [malic-acid] | 101 | 95 | 94.6 | 95.2 | 95 | 102 | 108 | 92.3 | 95.2 | 95.2 | 105 | 101 | 103 | 97.6 | 101 | 93 | 91.8 | 99 | 91 | 99.8 | 98.1 | 107 | 96.5 | 100 | 95.5 | > 10 | > 10 | > 10 | > 10 | > 10 | 0 | 0 | 0 | 0 | 0
CCC(=N\O)/C(C)=C/c1ccc(F)cc1 | 91.9 | 107 | 102 | 102 | 91 | 104 | 98.5 | 95.9 | 107 | 95 | 98.4 | 100 | 98.4 | 103 | 95 | 93.9 | 91.4 | 89.5 | 96.4 | 97.5 | 99.1 | 99.2 | 102 | 98.5 | 98.8 | > 10 | > 10 | > 10 | > 10 | > 10 | 0 | 0 | 0 | 0 | 0
